# pIC50: −log10 of the molar value.
# Target: T1, active p38 alpha enzyme (Upstate Biotechnology) (Homo sapiens, UniProt Q16539)
# T1 construct: purchased Upstate Biotechnology
# Test: p38α biochemical assay (ATP turnover, luminescent detection, Cambrex PKlight)
# Details: p38α kinase; Table 1 Biological Activity
# Procedure, shortened: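 Luminescent ATP-depletion readout measures total ATP turnover by p38α phosphorylating whole MapkapK2 protein. ATP 1.4 uM final; 30C, 2 h. Compounds delivered from DMSO.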
# T1 sequence (Q16539 whole entry): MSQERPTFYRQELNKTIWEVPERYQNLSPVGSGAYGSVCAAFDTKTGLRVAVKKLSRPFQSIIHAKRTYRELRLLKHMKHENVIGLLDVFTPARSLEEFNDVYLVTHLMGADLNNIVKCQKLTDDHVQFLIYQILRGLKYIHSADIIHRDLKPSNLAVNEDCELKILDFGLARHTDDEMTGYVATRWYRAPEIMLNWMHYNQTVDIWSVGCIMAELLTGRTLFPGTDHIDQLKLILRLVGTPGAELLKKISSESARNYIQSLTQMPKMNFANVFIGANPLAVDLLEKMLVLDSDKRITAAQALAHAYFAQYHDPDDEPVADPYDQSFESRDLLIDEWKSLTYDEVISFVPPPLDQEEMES
row,pIC50,SMILES
1,< 6.00,Cc1ccc(NCc2onc(-c3ccc(F)cc3)c2-c2nc(C(=O)NC(C)C)cs2)c(C)c1 [Example 1645]
2,< 6.00,Cc1cc(C)cc(NCc2onc(-c3ccc(F)cc3)c2-c2nc(C(=O)NC(C)C)cs2)c1 [Example 1646]
3,< 6.00,COc1cccc(NCc2onc(-c3ccc(F)cc3)c2-c2nc(C(=O)NC(C)C)cs2)c1 [Example 1647]
4,< 6.00,COc1ccc(NCc2onc(-c3ccc(F)cc3)c2-c2nc(C(=O)NC(C)C)cs2)cc1 [Example 1648]
5,< 6.00,COc1ccccc1NCc1onc(-c2ccc(F)cc2)c1-c1nc(C(=O)NC(C)C)cs1 [Example 1649]
6,< 6.00,COc1ccncc1NCc1onc(-c2ccc(F)cc2)c1-c1nc(C(=O)NC(C)C)cs1 [Example 1650]
7,< 6.00,Cc1ccc(NCc2onc(-c3ccc(F)cc3)c2-c2nc(C(=O)NC(C)C)cs2)cc1F [Example 1651]
8,< 6.00,Cc1c(F)cccc1NCc1onc(-c2ccc(F)cc2)c1-c1nc(C(=O)NC(C)C)cs1 [Example 1652]
9,< 6.00,CC(C)NC(=O)c1csc(-c2c(-c3ccc(F)cc3)noc2CNc2cc(F)cc(F)c2)n1 [Example 1653]
10,< 6.00,CC(C)NC(=O)c1csc(-c2c(-c3ccc(F)cc3)noc2CNc2ccc(F)cc2F)n1 [Example 1654]
11,< 6.00,CC(C)NC(=O)c1csc(-c2c(-c3ccc(F)cc3)noc2CNc2ccc3c(c2)CCC3)n1 [Example 1656]
12,< 6.00,CC(C)NC(=O)c1csc(-c2c(-c3ccc(F)cc3)noc2CNc2ccccc2C(C)C)n1 [Example 1657]
13,≥ 6.00,CC(=O)c1cccc(NCc2onc(-c3ccc(F)cc3)c2-c2nc(C(=O)NC(C)C)cs2)c1 [Example 1658]
14,< 6.00,CC(=O)c1ccc(NCc2onc(-c3ccc(F)cc3)c2-c2nc(C(=O)NC(C)C)cs2)cc1 [Example 1659]
15,< 6.00,CCc1cccc(C)c1NCc1onc(-c2ccc(F)cc2)c1-c1nc(C(=O)NC(C)C)cs1 [Example 1660]
16,< 6.00,Cc1cc(C)c(NCc2onc(-c3ccc(F)cc3)c2-c2nc(C(=O)NC(C)C)cs2)c(C)c1 [Example 1661]
17,< 6.00,CC(C)NC(=O)c1csc(-c2c(-c3ccc(F)cc3)noc2CNc2ccc3c(c2)OCO3)n1 [Example 1662]
18,< 6.00,COc1ccc(NCc2onc(-c3ccc(F)cc3)c2-c2nc(C(=O)NC(C)C)cs2)c(C)c1 [Example 1663]
19,< 6.00,CCOc1cccc(NCc2onc(-c3ccc(F)cc3)c2-c2nc(C(=O)NC(C)C)cs2)c1 [Example 1664]
20,< 6.00,CCOc1ccccc1NCc1onc(-c2ccc(F)cc2)c1-c1nc(C(=O)NC(C)C)cs1 [Example 1665]
21,< 6.00,CSc1ccccc1NCc1onc(-c2ccc(F)cc2)c1-c1nc(C(=O)NC(C)C)cs1 [Example 1666]
22,< 6.00,Cc1c(Cl)cccc1NCc1onc(-c2ccc(F)cc2)c1-c1nc(C(=O)NC(C)C)cs1 [Example 1667]
23,< 6.00,Cc1ccc(NCc2onc(-c3ccc(F)cc3)c2-c2nc(C(=O)NC(C)C)cs2)cc1Cl [Example 1668]
24,< 6.00,CC(C)NC(=O)c1csc(-c2c(-c3ccc(F)cc3)noc2CNc2cnc3ccccc3c2)n1 [Example 1669]
25,< 6.00,CC(C)NC(=O)c1csc(-c2c(-c3ccc(F)cc3)noc2CNc2cc(F)c(F)cc2F)n1 [Example 1670]
26,< 6.00,CC(C)NC(=O)c1csc(-c2c(-c3ccc(F)cc3)noc2CNC2CCCc3ccccc32)n1 (stereo not shown) [Example 1671]

row,pIC50,SMILES
1,< 6.00,CC(C)NC(=O)c1csc(-c2c(-c3ccc(F)cc3)noc2CNc2ccccc2C(C)(C)C)n1 [Example 1672]
2,< 6.00,Cc1cccc(C(C)C)c1NCc1onc(-c2ccc(F)cc2)c1-c1nc(C(=O)NC(C)C)cs1 [Example 1673]
3,< 6.00,CC(C)NC(=O)c1csc(-c2c(-c3ccc(F)cc3)noc2CNc2ccc3ncsc3c2)n1 [Example 1674]
4,< 6.00,CC(=O)Nc1ccc(NCc2onc(-c3ccc(F)cc3)c2-c2nc(C(=O)NC(C)C)cs2)cc1 [Example 1675]
5,< 6.00,CC(=O)Nc1ccc(NCc2onc(-c3ccc(F)cc3)c2-c2nc(C(=O)NC(C)C)cs2)cn1 [Example 1676]
6,< 6.00,CC(C)NC(=O)c1csc(-c2c(-c3ccc(F)cc3)noc2CNc2ccc3c(c2)OCCO3)n1 [Example 1677]
7,< 6.00,CC(C)NC(=O)c1csc(-c2c(-c3ccc(F)cc3)noc2CNc2ccccc2-n2cccc2)n1 [Example 1679]
8,< 6.00,CC(C)NC(=O)c1csc(-c2c(-c3ccc(F)cc3)noc2CNc2ccc(C(F)(F)F)cc2)n1 [Example 1680]
9,< 6.00,CC(C)NC(=O)c1csc(-c2c(-c3ccc(F)cc3)noc2CNc2cccc(C(F)(F)F)c2)n1 [Example 1681]
10,< 6.00,CC(C)NC(=O)c1csc(-c2c(-c3ccc(F)cc3)noc2CNc2ccc(Cl)c(Cl)c2)n1 [Example 1682]
11,< 6.00,Cc1cccc(C(C)(C)C)c1NCc1onc(-c2ccc(F)cc2)c1-c1nc(C(=O)NC(C)C)cs1 [Example 1683]
12,< 6.00,CC(C)NC(=O)c1csc(-c2c(-c3ccc(F)cc3)noc2CNc2ccc(N(C)C)cc2)n1 [Example 1684]
13,< 6.00,CC(C)NC(=O)c1csc(-c2c(-c3ccc(F)cc3)noc2CNc2ccccc2-c2ccccc2)n1 [Example 1685]
14,< 6.00,CC(C)NC(=O)c1csc(-c2c(-c3ccc(F)cc3)noc2CNc2ccc(OC(F)(F)F)cc2)n1 [Example 1686]
15,< 6.00,CC(C)NC(=O)c1csc(-c2c(-c3ccc(F)cc3)noc2CNc2c(C(C)C)cccc2C(C)C)n1 [Example 1687]
16,< 6.00,CC(C)NC(=O)c1csc(-c2c(-c3ccc(F)cc3)noc2CNc2ccc(F)cc2C(F)(F)F)n1 [Example 1688]
17,< 6.00,CC(C)NC(=O)c1csc(-c2c(-c3ccc(F)cc3)noc2CNc2cc(C(F)(F)F)ccc2F)n1 [Example 1689]
18,< 6.00,CC(C)NC(=O)c1csc(-c2c(-c3ccc(F)cc3)noc2CNc2ccc(F)c(C(F)(F)F)c2)n1 [Example 1690]
19,< 6.00,CCOc1ccc(OCC)c(NCc2onc(-c3ccc(F)cc3)c2-c2nc(C(=O)NC(C)C)cs2)c1 [Example 1691]
20,< 6.00,CC(C)NC(=O)c1csc(-c2c(-c3ccc(F)cc3)noc2CNc2cc(Cl)c(Cl)c(Cl)c2)n1 [Example 1692]
21,< 6.00,CC(C)NC(=O)c1csc(-c2c(-c3ccc(F)cc3)noc2CNc2ccccc2C(=O)c2ccccc2)n1 [Example 1693]
22,< 6.00,CC(C)NC(=O)c1csc(-c2c(-c3ccc(F)cc3)noc2CNc2ccccc2COc2ccccc2)n1 [Example 1694]
23,≥ 6.00,COc1ccc(-c2ccccc2)cc1NCc1onc(-c2ccc(F)cc2)c1-c1nc(C(=O)NC(C)C)cs1 [Example 1695]
24,< 6.00,CC(C)NC(=O)c1csc(-c2c(-c3ccc(F)cc3)noc2CNc2ncccc2OCc2ccccc2)n1 [Example 1696]
25,< 6.00,CC(C)NC(=O)c1csc(-c2c(-c3ccc(F)cc3)noc2CNc2cc(C(F)(F)F)ccc2C(F)(F)F)n1 [Example 1697]
26,< 6.00,CC(C)NC(=O)c1csc(-c2c(-c3ccc(F)cc3)noc2CNc2cc(C(F)(F)F)cc(C(F)(F)F)c2)n1 [Example 1698]

row,pIC50,SMILES
1,< 6.00,CC(C)NC(=O)c1csc(-c2c(-c3ccc(F)cc3)noc2CNc2ccc(C(F)(F)F)cc2C(F)(F)F)n1 [Example 1699]
2,< 6.00,CC(C)NC(=O)c1csc(-c2c(-c3ccc(F)cc3)noc2CBr)n1 [Example 1700]
3,< 6.00,Cc1nc(-c2ccc(F)cc2)c(-c2nc(C(=O)NC3CCCc4ccccc43)cs2)s1 (stereo not shown) [Example 1701]
4,≥ 6.00,COc1ccc(NC(=O)c2csc(-c3sc(C)nc3-c3ccc(F)cc3)n2)cc1OC [Example 1702]
5,< 6.00,Cc1nc(-c2ccc(F)cc2)c(-c2nc(C(=O)O)cs2)s1 [Example 1703]
6,< 6.00,Cc1nc(-c2ccc(F)cc2)c(-c2nc(C(=O)N(CCC#N)Cc3ccccc3)cs2)s1 [Example 1704]
7,≥ 6.00,CNC(=O)c1csc(-c2sc(C)nc2-c2ccc(F)cc2)n1 [Example 1705]
8,≥ 6.00,CCNC(=O)c1csc(-c2sc(C)nc2-c2ccc(F)cc2)n1 [Example 1706]
9,≥ 6.00,C#CCNC(=O)c1csc(-c2sc(C)nc2-c2ccc(F)cc2)n1 [Example 1707]
10,≥ 6.00,Cc1nc(-c2ccc(F)cc2)c(-c2nc(C(=O)NCC#N)cs2)s1 [Example 1708]
11,< 6.00,Cc1nc(-c2ccc(F)cc2)c(-c2nc(C(=O)NC3CC3)cs2)s1 [Example 1709]
12,< 6.00,CCCNC(=O)c1csc(-c2sc(C)nc2-c2ccc(F)cc2)n1 [Example 1710]
13,< 6.00,Cc1nc(-c2ccc(F)cc2)c(-c2nc(C(=O)NCCN)cs2)s1 [Example 1711]
14,≥ 6.00,Cc1nc(-c2ccc(F)cc2)c(-c2nc(C(=O)NCCO)cs2)s1 [Example 1712]
15,< 6.00,Cc1nc(-c2ccc(F)cc2)c(-c2nc(C(=O)NCCC#N)cs2)s1 [Example 1713]
16,≥ 6.00,Cc1nc(-c2ccc(F)cc2)c(-c2nc(C(=O)NC3CCC3)cs2)s1 [Example 1714]
17,≥ 6.00,Cc1nc(-c2ccc(F)cc2)c(-c2nc(C(=O)NCC3CC3)cs2)s1 [Example 1715]
18,< 6.00,CCC(C)NC(=O)c1csc(-c2sc(C)nc2-c2ccc(F)cc2)n1 (stereo not shown) [Example 1716]
19,< 6.00,Cc1nc(-c2ccc(F)cc2)c(-c2nc(C(=O)NCC(C)C)cs2)s1 [Example 1717]
20,≥ 6.00,Cc1nc(-c2ccc(F)cc2)c(-c2nc(C(=O)NCCCO)cs2)s1 [Example 1718]
21,≥ 6.00,Cc1nc(-c2ccc(F)cc2)c(-c2nc(C(=O)NC(C)CO)cs2)s1 (stereo not shown) [Example 1719]
22,< 6.00,COCCNC(=O)c1csc(-c2sc(C)nc2-c2ccc(F)cc2)n1 [Example 1720]
23,≥ 6.00,Cc1nc(-c2ccc(F)cc2)c(-c2nc(C(=O)NC3CCCC3)cs2)s1 [Example 1721]
24,< 6.00,CCCC(C)NC(=O)c1csc(-c2sc(C)nc2-c2ccc(F)cc2)n1 (stereo not shown) [Example 1722]

# From US20060252807A1, “Novel ortho-terphenyl inhibitors of p38 kinase and methods of treating inflammatory disorders” (Kalypsys, Inc., priority 2005, published 2006)
